Consider nine molecules from ChEMBL document CHEMBL1140095, “Design, synthesis, and antibacterial activities of neomycin-lipid conjugates: polycationic lipids with potent gram-positive activity” (2008).

Experiment [1] has as its system Staphylococcus aureus. In words: Antibacterial activity against Staphylococcus aureus ATCC 29213 after 24 hrs by macrobroth dilution method. It counts as functional. Conditions: ATCC 29213, 24 h. On the technique in general: In broth dilution the organism is exposed to a series of concentrations in liquid medium.
The subject of experiment [2] is Staphylococcus aureus. In words: Antibacterial activity against methicillin-resistant Staphylococcus aureus ATCC 33592 after 24 hrs by macrobroth dilution method. The experiment is classed as functional. As to conditions: ATCC 33592, 24 h.
Experiment [3] relates to Staphylococcus epidermidis. In words: Antibacterial activity against Staphylococcus epidermidis ATCC 1490 after 24 hrs by macrobroth dilution method. It counts as functional. As to conditions: ATCC 1490, 24 h.
The subject of experiment [4] is Staphylococcus epidermidis. In words: Antibacterial activity against methicillin-resistant Staphylococcus epidermidis ATCC 14990 after 24 hrs by macrobroth dilution method. The experiment is classed as functional. As to conditions: ATCC 14990, 24 h.
The subject of experiment [5] is Streptococcus pneumoniae. In words: Antibacterial activity against […] Streptococcus pneumoniae ATCC 49619 after 24 hrs by macrobroth dilution method. It counts as functional. Conditions: ATCC 49619, 24 h.
The test system of experiment [6] is Escherichia coli. In words: Antibacterial activity against Escherichia coli ATCC 25922 after 24 hrs by macrobroth dilution method. It counts as functional. As to conditions: ATCC 25922, 24 h.
The test system of experiment [7] is Escherichia coli. In words: Antibacterial activity against gentamicin-resistant Escherichia coli ATCC 6174 after 24 hrs by macrobroth dilution method. Conditions: ATCC 6174, 24 h. The experiment is classed as functional.
The test system of a further experiment is Pseudomonas aeruginosa. In words: Antibacterial activity against Pseudomonas aeruginosa ATCC 27853 after 24 hrs by macrobroth dilution method. It counts as functional. As to conditions: ATCC 27853, 24 h.
Another experiment concerns Candida albicans. In words: Antibacterial activity against Candida albicans. The experiment is classed as functional.
Experiment [8] deals with Streptococcus pneumoniae. In words: Antibacterial activity against Streptococcus pneumoniae ATCC 49619 after 24 hrs by macrobroth dilution method. As to conditions: ATCC 49619, 24 h.
Experiment [9] deals with Staphylococcus aureus. In words: Antibacterial activity against methicillin-susceptible Staphylococcus aureus after 24 hrs by macrobroth dilution method. It counts as functional.
In experiment [10] the test system is Staphylococcus aureus. In words: Antibacterial activity against Staphylococcus aureus. It counts as functional.
For experiment [11], the system named is Staphylococcus aureus. In words: Antibacterial activity against methicillin-resistant Staphylococcus aureus. It counts as functional.
For experiment [12], the system named is Escherichia coli. In words: Antibacterial activity against Escherichia coli. It counts as functional.

Values after ≈ are worked out from the molar mass of the structure shown.

For orientation: MIC means the least concentration at which growth counts as inhibited. Take `NC[C@@H]1O[C@H](O[C@H]2[C@@H](O)[C@H](O[C@@H]3[C@@H](O)[C@H](N)C[C@H](N)[C@H]3O[C@H]3O[C@H](CN)[C@@H](O)[C@H](O)[C@H]3N)O[C@@H]2CNC(=O)CCCc2ccc3ccc4cccc5ccc2c3c45)[C@H](N)[C@@H](O)[C@@H]1O`: the MIC with Staphylococcus aureus [1] is 16 µg/mL (≈ 18.1 µM); in the experiment with Staphylococcus aureus [2], 256 µg/mL (≈ 290 µM); in [3], 2 µg/mL (≈ 2.26 µM); in experiment [4], 64 µg/mL (≈ 72.4 µM); against Streptococcus pneumoniae [5], greater than 512 µg/mL; in the experiment on Escherichia coli [6], 32 µg/mL (≈ 36.2 µM). In addition, the MIC with Escherichia coli [7] was 64 µg/mL (≈ 72.4 µM); in the experiment with Pseudomonas aeruginosa it was 256 µg/mL (≈ 290 µM); against Candida albicans, no less than 512 µg/mL.
With `C[C@@H](CCC(=O)NC[C@H]1O[C@@H](O[C@@H]2[C@@H](O)[C@H](N)C[C@H](N)[C@H]2O[C@H]2O[C@H](CN)[C@@H](O)[C@H](O)[C@H]2N)[C@H](O)[C@@H]1O[C@H]1O[C@@H](CN)[C@@H](O)[C@H](O)[C@H]1N)[C@@H]1CC[C@H]2[C@@H]3[C@@H](O)C[C@H]4C[C@@H](O)CC[C@@]4(C)[C@H]3C[C@@H](O)[C@]21C` (stereo in doubt), the MIC with Staphylococcus aureus [1] was 16 µg/mL (≈ 15.9 µM); in the experiment on Staphylococcus aureus [2], 128 µg/mL (≈ 127 µM); in [3], 8 µg/mL (≈ 7.97 µM); in experiment [4], 16 µg/mL (≈ 15.9 µM); with Streptococcus pneumoniae [5], greater than 256 µg/mL; against Escherichia coli [6], 32 µg/mL (≈ 31.9 µM). Besides, the figures for the MIC in the experiment with Escherichia coli [7], against Pseudomonas aeruginosa and with Candida albicans were 64 µg/mL (≈ 63.7 µM), greater than 256 µg/mL and no less than 512 µg/mL, respectively.
As to `CCCCCC(=O)NC[C@H]1O[C@@H](O[C@@H]2[C@@H](O)[C@H](N)C[C@H](N)[C@H]2O[C@H]2O[C@H](CN)[C@@H](O)[C@H](O)[C@H]2N)[C@H](O)[C@@H]1O[C@H]1O[C@@H](CN)[C@@H](O)[C@H](O)[C@H]1N`, the MIC was 16 µg/mL (≈ 22.5 µM) against Staphylococcus aureus [1]; greater than 512 µg/mL with Staphylococcus aureus [2]; 2 µg/mL (≈ 2.81 µM) in experiment [3]; 32 µg/mL (≈ 45 µM) in experiment [4]; 16 µg/mL (≈ 22.5 µM) in the experiment with Escherichia coli [6]; 16 µg/mL (≈ 22.5 µM) in the experiment with Escherichia coli [7]. Further, the MIC was greater than 512 µg/mL in the experiment with Pseudomonas aeruginosa, no less than 512 µg/mL against Candida albicans and 64 µg/mL (≈ 89.9 µM) against Streptococcus pneumoniae [8].
Turning to `CCCCCCCCCCCCCCCC(=O)NC[C@H]1O[C@@H](O[C@@H]2[C@@H](O)[C@H](N)C[C@H](N)[C@H]2O[C@H]2O[C@H](CN)[C@@H](O)[C@H](O)[C@H]2N)[C@H](O)[C@@H]1O[C@H]1O[C@@H](CN)[C@@H](O)[C@H](O)[C@H]1N`, the MIC came to 4 µg/mL (≈ 4.69 µM) in the experiment on Staphylococcus aureus [1]; 8 µg/mL (≈ 9.39 µM) in the experiment with Staphylococcus aureus [2]; 2 µg/mL (≈ 2.35 µM) in experiment [3]; 2 µg/mL (≈ 2.35 µM) in experiment [4]; 32 µg/mL (≈ 37.6 µM) in the experiment with Escherichia coli [6]; 64 µg/mL (≈ 75.1 µM) in the experiment on Escherichia coli [7]. Moreover, the values for the MIC in the experiment on Pseudomonas aeruginosa, against Candida albicans and in the experiment with Streptococcus pneumoniae [8] were 128 µg/mL (≈ 150 µM), no less than 512 µg/mL and 64 µg/mL (≈ 75.1 µM), respectively.
Regarding `CCCCCCCCCCCCCCCCCCCC(=O)NC[C@H]1O[C@@H](O[C@@H]2[C@@H](O)[C@H](N)C[C@H](N)[C@H]2O[C@H]2O[C@H](CN)[C@@H](O)[C@H](O)[C@H]2N)[C@H](O)[C@@H]1O[C@H]1O[C@@H](CN)[C@@H](O)[C@H](O)[C@H]1N`, the MIC against Staphylococcus aureus [1] turned out to be 8 µg/mL (≈ 8.81 µM); against Staphylococcus aureus [2], 8 µg/mL (≈ 8.81 µM); in experiment [3] it was 4 µg/mL (≈ 4.4 µM); in [4] it was 4 µg/mL (≈ 4.4 µM); in the experiment on Streptococcus pneumoniae [5], 64 µg/mL (≈ 70.5 µM); against Escherichia coli [6], 128 µg/mL (≈ 141 µM). The MIC against Escherichia coli [7] is 128 µg/mL (≈ 141 µM); in the experiment with Pseudomonas aeruginosa it was 64 µg/mL (≈ 70.5 µM); in the experiment with Candida albicans it was no less than 512 µg/mL.
As for `CCCCCCCCCCCC(=O)NC[C@H]1O[C@@H](O[C@@H]2[C@@H](O)[C@H](N)C[C@H](N)[C@H]2O[C@H]2O[C@H](CN)[C@@H](O)[C@H](O)[C@H]2N)[C@H](O)[C@@H]1O[C@H]1O[C@@H](CN)[C@@H](O)[C@H](O)[C@H]1N`, the MIC in the experiment on Staphylococcus aureus [1] is 32 µg/mL (≈ 40.2 µM); against Staphylococcus aureus [2] it was greater than 512 µg/mL; in experiment [3] it was 4 µg/mL (≈ 5.03 µM); in experiment [4], 8 µg/mL (≈ 10.1 µM); in the experiment with Escherichia coli [6], 64 µg/mL (≈ 80.4 µM); in the experiment on Escherichia coli [7] it was 64 µg/mL (≈ 80.4 µM). Besides, the figures for the MIC with Pseudomonas aeruginosa, against Candida albicans and against Streptococcus pneumoniae [8] were 256 µg/mL (≈ 322 µM), no less than 512 µg/mL and 128 µg/mL (≈ 161 µM), respectively.
For the molecule `CCCCCCCCCCCC(=O)O` [DODECANOATE], the MIC against Staphylococcus aureus [2] and against Staphylococcus aureus [9] was 400 µg/mL (≈ 2000 µM) in each case.
Regarding `CCCCCCCCCCCCC/C=C/[C@@H](O)[C@@H](N)CO` [SPHINGOSINE], the MIC against Candida albicans worked out at 6 µg/mL (≈ 20 µM); with Staphylococcus aureus [10] it was 2 µg/mL (≈ 6.68 µM); in the experiment with Staphylococcus aureus [11], 4 µg/mL (≈ 13.4 µM); with Escherichia coli [12] it was 42 µg/mL (≈ 140 µM).
For the molecule `NC[C@@H]1O[C@H](O[C@H]2[C@@H](O)[C@H](O[C@@H]3[C@@H](O)[C@H](N)C[C@H](N)[C@H]3O[C@H]3O[C@H](CN)[C@@H](O)[C@H](O)[C@H]3N)O[C@@H]2CO)[C@H](N)[C@@H](O)[C@@H]1O` [FRAMYCETIN], the MIC against Staphylococcus aureus [1] was determined as 2 µg/mL (≈ 3.25 µM); against Staphylococcus aureus [2] it was 256 µg/mL (≈ 416 µM); in experiment [3], 1 µg/mL (≈ 1.63 µM); in experiment [4] it was 0.5 µg/mL (≈ 0.813 µM); in the experiment with Streptococcus pneumoniae [5] it was 64 µg/mL (≈ 104 µM); in the experiment with Escherichia coli [6], 8 µg/mL (≈ 13 µM). Besides, the MIC against Escherichia coli [7] is 4 µg/mL (≈ 6.51 µM); against Pseudomonas aeruginosa, 512 µg/mL (≈ 833 µM); in the experiment on Candida albicans it was no less than 512 µg/mL.
